# pEC50: −log10 of the molar value.
# Test: Inhibition of HBV: Determination of 50% inhibitory concentration (EC50) of compounds in […] cells were performed by the following procedure. On the first day, cells were seeded at 30,000 cells per 100 μL well in Biocoat collage coated flat bottom 96 well plates. On the following day, test compounds were solubilized in 100% DMSO to 100× the desired final testing concentration. Each compound was then serially diluted (1:3) up to 9 different concentrations. Compounds in 100% DMSO are reduced to 10% DMSO by diluting 1:10 in assay media. The final DMSO concentration was 1%. The cells were incubated at 37° C. for 72 hours.The antiviral activity was measured using a quantitative kinetic reverse transcription-polymerase chain reaction (RT-PCR) assay directly measuring the HBV viral copy numbers from the supernatant of HepG2.117 cells. EC50 was defined as the concentration of compound at which the HBV viral copy numbers from the HepG2.117 cells was reduced 50% relative to its level in the absence of compound. HBV viral copy numbers are normalized to the level observed in the absence of inhibitor, which was defined as 100%.
# Assay type: cell-based
SMILES,pEC50,EC50
Nc1ncnn2c(C[C@H](CF)OCP(=O)(O)O)cnc12,> 6.00,–
Nc1ncnc2c(C[C@@H](OCP(=O)(O)O)C(F)F)cnn12,–,in the range around 5500 nM
CC(C)OC(=O)[C@H](C)NP(=O)(COC(C)Cc1cnc2c(=O)[nH]c(N)nn12)Oc1ccccc1 (some centres undefined),> 6.00,–
CC(C)OC(=O)[C@H](C)NP(=O)(CO[C@@H](CF)Cc1cnn2c(N)ncnc12)Oc1ccccc1 (some centres undefined),> 6.00,–
CC(C)OC(=O)[C@H](C)NP(=O)(CO[C@H](C)Cc1cnn2c(N)ncnc12)Oc1ccccc1 (some centres undefined),> 6.00,–
Nc1ncnn2c(C[C@@H](CF)OCP(=O)(O)O)cnc12,–,in the range around 55000 nM
Nc1ncnc2c(C[C@H](OCP(=O)(O)O)C(F)F)cnn12,–,in the range around 5500 nM
CC(C)OC(=O)[C@H](C)NP(=O)(CO[C@H](C)Cc1cnc2c(N)ncnn12)Oc1ccccc1 (some centres undefined),> 6.00,–
Nc1ncnc2c(CC3(OCP(=O)(O)O)CC3)cnn12,–,in the range around 55000 nM
CC(Cc1cnc2c(=O)[nH]c(N)nn12)OCP(=O)(O)O (centres undefined),> 6.00,–
CC(C)OC(=O)[C@H](C)NP(=O)(CO[C@H](CF)Cc1cnn2c(N)ncnc12)Oc1ccccc1 (some centres undefined),> 6.00,–
CC(C)OC(=O)OCOP(=O)(COC(C)Cc1ccc2c(=O)[nH]c(N)nn12)OCOC(=O)OC(C)C (centres undefined),> 6.00,–
CC(C)OC(=O)OCOP(=O)(CO[C@H](C)Cc1ccc2c(N)ncnn12)OCOC(=O)OC(C)C,> 6.00,–
CC(C)OC(=O)OCOP(=O)(COC(C)Cc1ccc2c(N)nc(N)nn12)OCOC(=O)OC(C)C (centres undefined),–,in the range around 5500 nM
CC(C)OC(=O)OCOP(=O)(CO[C@H](C)Cc1cnc2c(N)ncnn12)OCOC(=O)OC(C)C,> 6.00,–
CC(C)OC(=O)OCOP(=O)(COC(CF)Cc1cnn2c(N)ncnc12)OCOC(=O)OC(C)C (centres undefined),> 6.00,–
CC(C)OC(=O)OCOP(=O)(CO[C@@H](C)Cc1cnn2c(N)ncnc12)OCOC(=O)OC(C)C,> 6.00,–
CC(C)OC(=O)OCOP(=O)(COCCc1ccc2c(N)ncnn12)OCOC(=O)OC(C)C,–,in the range around 5500 nM
CC(C)OC(=O)OCOP(=O)(CO[C@H](C)Cc1cnn2c(N)ncnc12)OCOC(=O)OC(C)C,< 4.00,–
